Test results taken from US7205387B2, “Recombinant polypeptide useful for neurotrophin receptor mediated gene delivery and as neurotrophin agonist” (Agency for Science, Technology and Research, priority 2003, dated 2007).
Bridge positions count the residues as written; N and C are the ends. Ends that are not written are not given here.

Experiments:
Erk1 and Erk2 = assay: Phospho-Erk1/Erk2 (p44/p42 MAPK) immunoblot in PC12 cells; format: cell-based, rat; details: for effect of TrkA inhibitor pre-treatment on NL4- and NL4-10K-induced phosphorylation of Erk1 and Erk2: 100 nM K-252a or 10 μM AG879, 10 min pre-incubation
Description: (§1) Immunoblotting experiments were conducted to test whether the chimeric polypeptides could, like NGF, induce autophosphorylation of TrkA and activation of its signal transduction pathways. PC12 cells were seeded in 6-well plates at a density of 2×10^6 cells/well and cultured in RPMI 1640 containing 0.5% FBS and 0.25% horse serum for 2 days. The low serum concentrations were necessary to reduce the basal levels of phosphorylation. The medium was refreshed two hours before beginning treatment. The cells were incubated with the polypeptides or NGF in serum-free medium for 15–20 min. The cells were then washed in PBS, lysed, and sonicated. The cell lysates were resolved by SDS-PAGE and transferred to a nitrocellulose membrane for immunoblotting. The primary antibodies used include Phospho-TrkA (Tyr490) antibody, Phospho-p44/p42 MAPK (Thr202/Tyr204) monoclonal antibody, and Phospho-Akt (Ser473) monoclonal antibody, all obtained from Cell Signaling Technology (Beverly, Mass., USA). Colorimetric detection was performed by standard techniques after using horse-radish peroxidase-conjugated secondary antibodies. In some experiments, TrkA tyrosine kinase inhibitors K-252a or AG879 (both from Calbiochem, La Jolla, Calif., USA) were used. In these cases, PC12 cells were incubated with 100 nM K-252a or 10 μM AG879 before addition of polypeptides or NGF.

[1] = test system: PC12 (TrkA and p75^NTR positive) cells; assay: Gene delivery in vitro (pCAGluc luciferase reporter), PC12 cells; format: cell-based, rat; details: for dose-response of transfection efficiency with increasing amount of peptide: 1 μg pCAGluc/well, 100 μM chloroquine
Description: A PC12 (rat pheochromocytoma) cell line was obtained from ATCC (American Type Culture Collection, Manassas, Va., USA) and cultured in RPMI-1640 medium supplemented with 10% fetal bovine serum (FBS) and 5% horse serum. PC12 cells are known to express TrkA and p75^NTR receptors. A COS7 (African green monkey kidney fibroblast) cell line was obtained from ATCC and cultured in Dulbecco's modified Eagle's medium (DMEM) supplemented with 10% fetal bovine serum, 50 U/ml penicillin, and 50 μg/ml streptomycin. The cells were maintained in a 37° C., 5% CO2, humidified incubator.
To determine the transfection efficiencies of our nucleic acid delivery systems, we employ a reporter plasmid, pCAGluc (a gift from Yoshiharu Matsuura, National Institute of Infectious Diseases, Tokyo, Japan), encoding firefly luciferase under the control of the composite promoter, CAG. CAG comprises the chicken β-actin promoter and the cytomegalovirus immediate early enhancer.
TrkA-targeting gene delivery complexes were tested for transfection efficiency in vitro in PC12 (TrkA and p75^NTR positive) cells and COS7 (neurotrophin receptor negative) cells. The cells were grown to 50–70% confluency in microplate wells (24-, 48-, or 96-well plates). The gene delivery complexes were prepared according to specifications presented for each example. Transfection was accomplished by replacing the serum-enriched medium with half the usual volume of reduced-serum medium, Opti-MEM (Invitrogen), containing the gene delivery complexes. Where specifically mentioned, 100 μM of chloroquine was also added to help the complexes escape from endosomes. After four hours of incubation, the cells were restored to the normal medium volume and serum concentration, either by topping up with medium containing twice the usual serum concentration (RPMI-1640 with 20% FBS and 10% horse serum for PC12) or by completely replacing the medium.
One to two days after transfection, the cell culture medium was removed and the cells were rinsed in phosphate-buffered saline (PBS). Enough Reporter Lysis Buffer (Promega, Wisconsin, Md., USA) to cover the bottom surface was added to each well (50 μl/well for 48-well plates). After one freeze-thaw cycle, the lysates were tested for luciferase activity using the Luciferase Assay System (Promega) and a single-tube luminometer (Berthold Lumat L B 9507, Bad Wildbad, Germany). The total protein concentration of each lysate was determined using the DC Protein assay (Bio-Rad, Hercules, Calif., USA). The results were expressed in relative light units (RLU) per milligram of total protein.

primary glial cells = assay: Gene delivery to primary cultures of glial cells; format: cell-based, rat
Description: Primary cultures of glial cells were established from the cortices of 20-day old embryonic Wistar rats. Individual cells were collected as described above. The cells were plated at a density of 4×10^5 viable cells/cm^2 on poly-L-lysine/laminin coated dishes and grown to confluence for 7 days in DMEM/F12 medium supplemented with 10% FCS. The day before transfection, the cells were detached and plated into coated microplates at a density of 2.5×10^4 cells per well. Gene delivery complexes were also tested on primary cultures of cortical neurons and glial cells in a similar fashion. […] Four hours later, an equal volume of DMEM-F12/N2 was added. One to two days after transfection, the cell culture medium was removed and the cells were rinsed in phosphate-buffered saline (PBS). Enough Reporter Lysis Buffer (Promega, Wisconsin, Md., USA) to cover the bottom surface was added to each well (50 μl/well for 48-well plates). After one freeze-thaw cycle, the lysates were tested for luciferase activity using the Luciferase Assay System (Promega) and a single-tube luminometer (Berthold Lumat L B 9507, Bad Wildbad, Germany). The total protein concentration of each lysate was determined using the DC Protein assay (Bio-Rad, Hercules, Calif., USA). The results were expressed in relative light units (RLU) per milligram of total protein.

primary cortical neurons = assay: Gene delivery to primary cultures of cortical neurons; format: cell-based, rat
Description: Primary cultures of neurons were established from the cortices of embryonic Wistar rats at gestational day 20. Cortices freed of meninges were dissected and individual cells were dispersed mechanically by trituration of minced tissue in 3 ml DMEM medium supplemented with 2% FBS. The suspension was allowed to settle in a centrifuge tube. The cells in the supernatant were collected by centrifugation and resuspended gently in DMEM with 10% FBS. Viability of the cells was assessed prior to plating using trypan blue. Cells were plated onto microplates pre-coated with poly-L-lysine/laminin at a density of 7.5×10^5 viable cells/cm^2. After a two-hour incubation period to allow neurons to attach, the medium and unattached cells were removed and replaced by serum-free DMEM/F12 medium with 1% N2 supplement (Invitrogen, Carlsbad, Calif., USA). The cell were then incubated at 37° C. in 5% CO2 in a humidified incubator. After 2–5 days of culture, the neuron cells were used for transfection experiments. Gene delivery complexes were also tested on primary cultures of cortical neurons and glial cells in a similar fashion. […] Four hours later, an equal volume of DMEM-F12/N2 was added. One to two days after transfection, the cell culture medium was removed and the cells were rinsed in phosphate-buffered saline (PBS). Enough Reporter Lysis Buffer (Promega, Wisconsin, Md., USA) to cover the bottom surface was added to each well (50 μl/well for 48-well plates). After one freeze-thaw cycle, the lysates were tested for luciferase activity using the Luciferase Assay System (Promega) and a single-tube luminometer (Berthold Lumat L B 9507, Bad Wildbad, Germany). The total protein concentration of each lysate was determined using the DC Protein assay (Bio-Rad, Hercules, Calif., USA). The results were expressed in relative light units (RLU) per milligram of total protein.

Akt = assay: Phospho-Akt immunoblot in PC12 cells; format: cell-based, rat; details: 5 μM peptide, 20 min
Description: as §1

plasmid DNA [2] = assay: DNA retardation assay (agarose gel electrophoresis); format: binding
Description: This assay qualitatively assesses the ability of a polypeptide or polycation to bind to DNA and thus to retard its migration (by decreasing its charge/mass ratio) through an agarose gel under electrophoresis. For a range of N/P ratios, polypeptide was added to 0.1 μg of plasmid DNA made up to 20 μl with either HEPES-buffered saline (HBS, 150 mM NaCl, 29 mM HEPES, pH 7.3) or 5% glucose. The mixtures were vortexed and incubated at room temperature for 30 minutes before being subjected to electrophoresis in a 0.8–1.0% Tris-borate-EDTA agarose gel stained with ethidium bromide for visualization under ultraviolet light.

TrkA = biological target: T1, TrkA (Rattus norvegicus, UniProt P35739); assay: Phospho-TrkA immunoblot in PC12 cells; format: cell-based; details: 5 μM peptide, 20 min
T1 construct: endogenous in cells; host or cells: PC12 (rat pheochromocytoma, ATCC)
T1 sequence (P35739 33-799): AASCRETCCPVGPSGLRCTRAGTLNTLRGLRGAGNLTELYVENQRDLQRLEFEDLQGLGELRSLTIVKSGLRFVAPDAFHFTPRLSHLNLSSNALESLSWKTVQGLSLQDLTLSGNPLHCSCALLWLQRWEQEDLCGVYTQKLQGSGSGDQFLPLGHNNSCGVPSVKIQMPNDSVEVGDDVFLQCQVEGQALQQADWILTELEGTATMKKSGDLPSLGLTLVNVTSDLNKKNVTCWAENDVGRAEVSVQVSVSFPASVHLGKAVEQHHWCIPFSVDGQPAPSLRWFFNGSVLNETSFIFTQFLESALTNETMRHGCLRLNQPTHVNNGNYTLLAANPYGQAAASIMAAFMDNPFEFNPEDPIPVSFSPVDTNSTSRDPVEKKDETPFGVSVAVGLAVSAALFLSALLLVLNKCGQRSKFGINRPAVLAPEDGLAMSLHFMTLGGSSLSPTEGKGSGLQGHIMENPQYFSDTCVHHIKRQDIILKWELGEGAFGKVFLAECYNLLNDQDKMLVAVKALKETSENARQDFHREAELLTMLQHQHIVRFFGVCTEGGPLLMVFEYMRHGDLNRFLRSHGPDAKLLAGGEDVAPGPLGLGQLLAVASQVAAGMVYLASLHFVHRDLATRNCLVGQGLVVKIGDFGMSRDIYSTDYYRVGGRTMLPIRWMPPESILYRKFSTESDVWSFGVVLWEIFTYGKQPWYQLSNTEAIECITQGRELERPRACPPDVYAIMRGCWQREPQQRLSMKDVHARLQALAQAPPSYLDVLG
Description: as §1

PC12 cells = assay: PC12 cell survival assay (MTT, serum-free medium); format: cell-based, rat; details: differentiated PC12, serum and NGF deprived 4 days; 0.125 to 2.5 μM; NGF 10 ng/ml control
Description: Undifferentiated or differentiated (by 6-day treatment with 10 ng/ml NGF) PC12 cells seeded onto collagen-coated 96-well plates were exposed to serum-free RPMI-1640 medium containing either NGF or various concentrations of chimeric polypeptides. After 3–4 days of incubation, cell viability was measured by the standard MTT assay. Cell survival was expressed as a percentage of the viability of the NGF-treated control.

plasmid DNA [3] = assay: Atomic force microscopy of polypeptide-DNA complexes; format: physicochemical; details: N/P ratio of 10
Description: DNA samples, polypeptide-DNA complexes, and polypeptide-polycation-DNA complexes were prepared with a DNA concentration of 0.02 mg/ml. The samples were diluted ten-fold in HPLC-grade water, and 20 μl of each sample was deposited onto mica discs. After one minute, the mica discs were washed with HPLC-grade water and dried in a stream of filtered air. Images were acquired on a Nanoscope IIIa atomic force microscope (Digital Instruments, Santa Barbara, Calif., USA) operating in tapping mode in air, using Nanoprobe Silicon tips (Digital Instruments).

[4] = 0.25 μg/well pCAGluc, PEI600-based complexes
[5] = pCAGluc/SPKR4BL1-2 without PEI600, 0.25 μg/well

For `CC(C)(C)c1cc(/C=C(\C#N)C(N)=S)cc(C(C)(C)C)c1O` [AG879, reference compound], the “effect of TrkA inhibitor pre-treatment on NL4- and NL4-10K-induced phosphorylation of Erk1 and Erk2” value (Erk1 and Erk2) was “greatly reduced”.

With “NGF: nerve growth factor, neurotrophin; competitor and positive control” the “effect of added NGF on transfection by (SPKR)4/DNA/PEI600” value ([1]; NGF 200 ng/ml) was “no significant effect” and the “effect of added NGF on transfection by SPKR4NL1-2/DNA/PEI600” value ([1]; NGF 200 ng/ml during transfection) was “greatly reduces the transfection efficiency”.

For `COC(=O)[C@@]1(O)C[C@H]2O[C@]1(C)n1c3ccccc3c3c4c(c5c6ccccc6n2c5c31)C(=O)NC4` [K-252a, reference compound], the “effect of K-252a on Erk phosphorylation induced by 8 μM SPKR4NL1-2” value (Erk1 and Erk2; 0, 10, 20, 50 and 100 nM K-252a, 10 min pre-incubation) was “reduced and eventually eliminated” and the “effect of TrkA inhibitor pre-treatment on NL4- and NL4-10K-induced phosphorylation of Erk1 and Erk2” value (Erk1 and Erk2) was “greatly reduced”.

With “SPKRSPKRSPKRSPKR (artificial sequence SPKR4) [(SPKR)4, reference compound]” the “transgene expression (in words)” value (primary glial cells; [4]) was “enhances transgene expression” and the “transgene expression (in words)” value (primary cortical neurons; [4]) was “enhances transgene expression”.

In the case of “NL4: loop 4 of NGF and the flanking β-sheet sequences, amino acids 80–108; targeting domain only (CTTTHTFVKALTMDGKQAAWRFIRIDTAC; disulfide 1-29)”, the “dose-response of transfection efficiency with increasing amount of peptide” value [1] is reported as “Neither NL4 (targeting domain only) nor 10K (DNA-binding domain only) nor a mixture of the two exhibited this dose-responsive trend”, the “activation (phosphorylation) of Akt” value (Akt) is reported as “induced activation” and the “DNA binding / retardation of DNA migration (in words)” value (plasmid DNA [2]) is reported as “does not retard DNA migration”. For the same molecule, the “activation (phosphorylation) of Erk 1 and Erk 2” value (Erk1 and Erk2; 5 μM peptide, 20 min) was “induced activation”, the “activation (phosphorylation) of TrkA” value (TrkA) was “induced activation” and the “cell survival rate as % of optimal NGF-promoted survival” value (PC12 cells) was 68–109%.

“KKKKKKKKKK (artificial sequence lysine 10) [10K, ten consecutive lysine residues, reference compound]” was tested, and the “dose-response of transfection efficiency with increasing amount of peptide” value [1] was “Neither NL4 (targeting domain only) nor 10K (DNA-binding domain only) nor a mixture of the two exhibited this dose-responsive trend” and the “reduction of efficiency of NL4-10K/pCAGluc gene delivery by excess free competitor” value ([1]; competitor present during transfection, complexes at N/P ratio of 5, 100 μM chloroquine) was “did not have a significant effect”.

B1: SPKR4BL1-2: chimeric protein analogous to SPKR4NL1-2 with loops 1 and 2 of BDNF (aa 22–74) to bind TrkB (protein)
chain: MGHHHHHHHHHHSSGHIEGRHMSPKRSPKRSPKRSPKRGGTYLSEDELKAAEAAFKRHNPTGSCSISEWVTAADKKTAVDMSGGTVTVLEKVPVSKGQLKQYFYETKCNPMGYTKEG
modifications: SPKR4BL1-2
B1 was tested, and the “diameter of condensed plasmid DNA particles” value (plasmid DNA [3]) was “under 200 nm”, the “transgene expression relative to PEI600/DNA” value (primary glial cells; [5]) was 50 times and the “transgene expression relative to naked DNA” value (primary glial cells; [5]) was 180 times. For the same molecule, the “N/P ratio at which plasmid DNA is completely retarded (complex immobile)” value (plasmid DNA [2]; 0.1 μg plasmid DNA, agarose gel) was 2 N/P ratio, the “peptide/DNA amount equivalent to the N/P ratio of complete retardation” value (plasmid DNA [2]; N/P ratio of 2) was 0.8 nmol/ug DNA and the “increase of transgene expression with increasing SPKR4BL1-2” value (primary cortical neurons; PEI600 fixed at N/P ratio of 10, 0.25 μg/well pCAGluc, highest ratio used) was “up to 500 fold”.
